This is an account of results in US12209087B2, “AKT1 modulators” (Alterome Therapeutics, Inc., priority 2022, dated 2025).

The target of one assay is T1, full length AKT E17K (Homo sapiens, UniProt P31749, E17K).
T1 construct: host or cells: HEK-293 (ATCC CRL-1573)
T1 sequence (P31749 whole entry E17K): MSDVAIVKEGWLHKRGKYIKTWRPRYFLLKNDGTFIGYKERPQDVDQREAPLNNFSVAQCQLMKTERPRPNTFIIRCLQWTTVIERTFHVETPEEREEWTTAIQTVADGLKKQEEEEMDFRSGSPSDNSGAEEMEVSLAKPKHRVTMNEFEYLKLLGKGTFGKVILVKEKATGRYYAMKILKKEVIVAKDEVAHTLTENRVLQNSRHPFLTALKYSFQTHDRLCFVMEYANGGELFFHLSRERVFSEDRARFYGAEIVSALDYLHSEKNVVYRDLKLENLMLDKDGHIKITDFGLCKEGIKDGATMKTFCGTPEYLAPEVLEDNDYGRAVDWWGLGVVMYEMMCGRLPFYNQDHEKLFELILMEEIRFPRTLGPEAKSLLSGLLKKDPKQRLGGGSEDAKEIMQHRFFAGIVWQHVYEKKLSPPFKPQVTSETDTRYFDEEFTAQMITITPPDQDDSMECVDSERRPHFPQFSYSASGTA
The assay is described as follows: NanoBRET Target Engagement (TE) Assay. The conditions noted are these: competitive displacement of tracer in cells, read-out: AKT1 E17K IC50. The assay is classed as cell-based. An excerpt:
The NanoBRET™ Target Engagement (TE) Intracellular Kinase Assays are based on the NanoBRET™ System (Promega Corporation), an energy transfer technique designed to measure molecular proximity in living cells. The NanoBRET™ TE Assays measure the apparent affinity of test compounds by competitive displacement of the NanoBRET™ tracer compound, which is a cell permeable molecule engineered to be reversibly bound to a NanoLuc® luciferase-kinase fusion expressed in cells. For compound screening, when a test compound binds to the selected kinase, the BRET signal is attenuated. […] All cells were evaluated for viability prior to transfection and optimization of the transfection was done prior to experimentation. […] Following transfection, cells were washed and resuspended in Opti-MEM. NanoBRET assays were performed in white, 384-well plates (Corning) at a density of […]. All example compounds were prepared as concentrated stock solutions in DMSO (Sigma-Aldrich). Compounds are dissolved in DMSO to make 10 mM stock solution. […] A Labcyte ECHO 550 compound dispenser was used to facilitate compound transfer directly to cells. Cells were equilibrated for 2 hr with energy transfer probes and example compound prior to BRET measurements. […] For target engagement analysis, the energy transfer probes were added to the cells at concentrations optimized for the target in question (AKT E17K). Following compound incubation, NanoBRET NanoGlo Substrate (Promega Cat #N157D) and Extracellular Nanoluc Inhibitor (Promega Cat #N235C) was added according to the manufacturer's recommended protocol, and luminescence was measured on Envision Reader (Perkin Elmer) Multimode Luminometer equipped with 450 nm BPfilter (donor) and 600 nm LPfilter (acceptor), using 0.5 s integration time. Milli-BRET units (mBU) are calculated by multiplying the raw BRET values by 1000. Apparent tracer affinity values (EC50) were determined using the sigmoidal dose-response (variable slope).
Competitive displacement data were then plotted and data were fit to determine the EC50 value for each example compound.
(In general: BRET reads energy transfer from a luciferase to a nearby fluorophore.)
As for `N#Cc1nccc(NC2CCN(Cc3ccc(-n4c(-c5ccccc5)nc5ccc(-c6ccc(F)cn6)nc54)cc3)CC2)n1` [Example 577, 4-((1-(4-(5-(5-Fluoropyridin-2-yl)-2-phenyl-3H-imidazo[4,5-b]pyridin-3-yl)benzyl)piperidin-4-yl)amino)pyrimidine-2-carbonitrile], the IC50 fell in the range of 15 to 60 nM.

For the compound `N#Cc1nccc(N2CCC3(CC2)CN(Cc2ccc(-n4c(-c5cccnc5N)nc5ccc(-c6ccc(F)cc6)nc54)cc2)C3)n1` [Example 491, 4-(2-(4-(2-(2-Aminopyridin-3-yl)-5-(4-fluorophenyl)-3H-imidazo[4,5-b]pyridin-3-yl)benzyl)-2,7-diazaspiro[3.5]nonan-7-yl)pyrimidine-2-carbonitrile], the IC50 was less than 15 nM.

As for `N#Cc1ncnc(NC2CCN(Cc3ccc(-n4c(-c5cccnc5N)nc5ccc(-c6ccccc6)nc54)cc3)CC2)n1` [Example 391, 4-((1-(4-(2-(2-Aminopyridin-3-yl)-5-phenyl-3H-imidazo[4,5-b]pyridin-3-yl)benzyl)piperidin-4-yl)amino)-1,3,5-triazine-2-carbonitrile], the IC50 is less than 15 nM.

For the compound `N#Cc1nccc(NC2CCN(Cc3ccc(-n4c(-c5cccnc5N)nc5ccc(-c6ccc(F)cc6)nc54)cc3)CC2)n1` [Example 370, 4-((1-(4-(2-(2-Aminopyridin-3-yl)-5-(4-fluorophenyl)-3H-imidazo[4,5-b]pyridin-3-yl)benzyl)piperidin-4-yl)amino)pyrimidine-2-carbonitrile], the 50% inhibitory concentration (IC50) is less than 15 nM.

In the case of `N#Cc1nccc(NC2CCN(Cc3ccc(-n4c(-c5cccnc5N)nc5cc(C#N)c(-c6ccc(F)cc6)nc54)cc3)CC2)n1` [Example 557, 2-(2-Aminopyridin-3-yl)-3-(4-((4-((2-cyanopyrimidin-4-yl)amino)piperidin-1-yl)methyl)phenyl)-5-(4-fluorophenyl)-3H-imidazo[4,5-b]pyridine-6-carbonitrile], the IC50 was less than 15 nM.

In the case of `CN(c1ccnc(C#N)n1)C1CCN(Cc2ccc(-n3c(-c4cccnc4N)nc4cccnc43)cc2)CC1` [Example 390, 4-((1-(4-(2-(2-Aminopyridin-3-yl)-3H-imidazo[4,5-b]pyridin-3-yl)benzyl)piperidin-4-yl)(methyl)amino)pyrimidine-2-carbonitrile], the half-maximal inhibitory concentration (IC50) is less than 15 nM.

The assay is the same for the next values; noted with them: competitive tracer displacement in living cells, read-out: AKT1 E17K IC50.
Regarding `N#Cc1nc2cc(F)cc(C(=O)NC3CCN(Cc4ccc(-n5c(-c6cccnc6N)nc6cccnc65)cc4)CC3)c2s1` [Example 35, N-(1-(4-(2-(2-Aminopyridin-3-yl)-3H-imidazo[4,5-b]pyridin-3-yl)benzyl)piperidin-4-yl)-2-cyano-5-fluorobenzo[d]thiazole-7-carboxamide], the 50% inhibitory concentration (IC50) fell in the range of 60 to 600 nM.

`N#Cc1cccnc1C(=O)N1CCN(Cc2ccc(-n3c(-c4cccnc4N)nc4cccnc43)cc2)CC1` [Example 110, 2-(4-(4-(2-(2-Aminopyridin-3-yl)-3H-imidazo[4,5-b]pyridin-3-yl)benzyl)piperazine-1-carbonyl)nicotinonitrile]: the IC50 was in the range of 600 to 10000 nM.

Take `N#Cc1cncc(C(=O)NCc2ccc(-n3c(-c4cccnc4N)nc4cccnc43)cc2)c1` [Example 123, N-(4-(2-(2-Aminopyridin-3-yl)-3H-imidazo[4,5-b]pyridin-3-yl)benzyl)-5-cyanonicotinamide]: the IC50 was in the range of 600 to 10000 nM.

As for `N#Cc1cc(N2CCN(Cc3ccc(-n4c(-c5cccnc5N)nc5ccc(-c6cccc(F)c6)nc54)cc3)CC2)ncn1` [Example 310, 6-(4-(4-(2-(2-Aminopyridin-3-yl)-5-(3-fluorophenyl)-3H-imidazo[4,5-b]pyridin-3-yl)benzyl)piperazin-1-yl)pyrimidine-4-carbonitrile], the IC50 is less than 15 nM.

For `N#Cc1nccc(C(=O)N2CCN(Cc3ccc(-n4c(-c5cccnc5N)nc5cccnc54)cc3)CC2)n1` [Example 152, 4-(4-(4-(2-(2-aminopyridin-3-yl)-3H-imidazo[4,5-b]pyridin-3-yl)benzyl)piperazine-1-carbonyl)pyrimidine-2-carbonitrile], the half-maximal inhibitory concentration (IC50) lay within 60 to 600 nM.

The IC50 is the concentration that inhibits the measured activity by half.
